Measurements published in article PMC6723352, “Exploring Structure-Activity Relationship in Tacrine-Squaramide Derivatives as Potent Cholinesterase Inhibitors” (Biomolecules, 2019).

Legend:
in vitro = conditions: human
Protocol: The human origin cell line HepG2 (ATCC, Mannassas, VA, USA) isolated from liver hepatocellular carcinoma was used to evaluate cytotoxicity of tested compounds. The cells were cultivated in Dublecco’s modified Eagle’s medium (DMEM; Biosera, Nuaille, France) supplemented with 10% fetal bovine serum (Biosera) and 1% penicillin-streptomycin antibiotic solution (Sigma-Aldrich, St. Louis, MO, USA), incubated at 37 °C in a CO2 incubator (Binder CO2 incubator BC 160, Tuttlingen, Germany) and routinely passaged by trypsinization at 75–85% confluence.
The final concentration of DMSO was less than 0.25% per well.
After 24-h incubation, the medium containing serially diluted substances was aspirated from each well and replaced by 100 µL of fresh medium containing MTT (0.5 mg/mL). Plates were subsequently incubated at 37 °C in CO2 incubator for 45 min. The medium containing MTT was then aspirated and formazan dissolved in 100 μL of DMSO. The optical density of each well was measured using Synergy 2 Multi-Mode Microplate Reader (BioTek Instruments, Inc., Winooski, VT, USA) at 570 nm. The cell viability was expressed as the percentage of untreated control. Each experiment was performed in triplicate and repeated three independent times.
The IC50 values were expressed as a mean ± standard error of the mean (SEM).

[1] = target: human BChE (hBChE), human plasmatic butyrylcholinesterase (Homo sapiens, UniProt P06276); assay: hBChE inhibition, modified Ellman's method; assay type: biochemical; conditions: mean of at least three experiments; read-out: IC50 hBChE
Chain of human BChE (hBChE), human plasmatic butyrylcholinesterase (P06276 29-602): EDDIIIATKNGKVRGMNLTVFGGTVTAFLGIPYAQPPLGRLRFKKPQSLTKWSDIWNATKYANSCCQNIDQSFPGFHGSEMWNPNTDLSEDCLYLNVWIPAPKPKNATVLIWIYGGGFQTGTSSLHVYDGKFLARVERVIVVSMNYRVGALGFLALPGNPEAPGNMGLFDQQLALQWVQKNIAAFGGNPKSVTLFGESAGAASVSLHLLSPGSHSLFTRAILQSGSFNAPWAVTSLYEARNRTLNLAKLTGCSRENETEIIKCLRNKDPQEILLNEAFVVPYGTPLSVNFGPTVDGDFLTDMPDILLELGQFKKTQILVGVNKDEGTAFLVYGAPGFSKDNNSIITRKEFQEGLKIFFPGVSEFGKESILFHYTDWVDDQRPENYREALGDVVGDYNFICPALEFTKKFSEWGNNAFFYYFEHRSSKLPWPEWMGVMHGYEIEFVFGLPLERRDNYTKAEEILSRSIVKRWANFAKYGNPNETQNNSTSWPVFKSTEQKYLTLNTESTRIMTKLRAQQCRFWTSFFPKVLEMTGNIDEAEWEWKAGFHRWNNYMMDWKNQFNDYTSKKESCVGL
Protocol: Three series of tacrine-squaramide homodimers were tested for their inhibitory potential against human AChE (hAChE) and human BChE (hBChE) enzymes using modified spectrophotometric method of Ellman et al.. THA, 6-Cl-THA and 7-MEOTA were used as reference compounds.
(§1) Human plasmatic butyrylcholinesterase (BChE; EC 3.1.1.8) and recombinant acetylcholinesterase (AChE; 3.1.1.7) were prepared at the Department of Toxicology and Military Pharmacy. 5,5′-dithiobis(2-nitrobenzoic acid) (Ellman’s reagent, DTNB), phosphate buffer (PB, pH 7.4), acetylthiocholine (ATC) and butyrylthiocholine (BTC), were purchased from Sigma-Aldrich, Prague, Czech Republic. For measuring purposes – polystyrene Nunc 96-well microplates with flat bottom shape (ThermoFisher Scientific, USA) were utilized.
(§2) All the assays were carried out in 0.1 M KH2PO4/K2HPO4 buffer, pH 7.4. Enzyme solutions were prepared at 2.0 units/mL in 2 mL aliquots. The assay medium (100 µL) consisted of 40 µL of 0.1 M phosphate buffer (pH 7.4), 20 µL of 0.01 M DTNB, 10 µL of the enzyme, and 20 µL of 0.01 M substrate (ATC/BTC iodide solution).
(§3) Tested compounds were preincubated for 5 min. The reaction was started by immediate addition of 20 µL of the substrate. The activity was determined by measuring the increase in absorbance at 412 for AChE/BChE at 37 °C at 2 min intervals - using a Multi-mode microplate reader Synergy 2 (Winooski, VT, USA). Each concentration was assayed in triplicate. Software GraphPad Prizm 5 (San Diego, CA, USA) was used for the statistical data evaluation.

[2] = target: T1, human AChE (hAChE), recombinant acetylcholinesterase (Homo sapiens, UniProt P22303); assay: hAChE inhibition, modified Ellman's method; assay type: biochemical; conditions: for SI (selectivity index for hAChE): ratio IC50(hBChE)/IC50(hAChE)
T1 construct: made in house
T1 sequence (P22303 32-614): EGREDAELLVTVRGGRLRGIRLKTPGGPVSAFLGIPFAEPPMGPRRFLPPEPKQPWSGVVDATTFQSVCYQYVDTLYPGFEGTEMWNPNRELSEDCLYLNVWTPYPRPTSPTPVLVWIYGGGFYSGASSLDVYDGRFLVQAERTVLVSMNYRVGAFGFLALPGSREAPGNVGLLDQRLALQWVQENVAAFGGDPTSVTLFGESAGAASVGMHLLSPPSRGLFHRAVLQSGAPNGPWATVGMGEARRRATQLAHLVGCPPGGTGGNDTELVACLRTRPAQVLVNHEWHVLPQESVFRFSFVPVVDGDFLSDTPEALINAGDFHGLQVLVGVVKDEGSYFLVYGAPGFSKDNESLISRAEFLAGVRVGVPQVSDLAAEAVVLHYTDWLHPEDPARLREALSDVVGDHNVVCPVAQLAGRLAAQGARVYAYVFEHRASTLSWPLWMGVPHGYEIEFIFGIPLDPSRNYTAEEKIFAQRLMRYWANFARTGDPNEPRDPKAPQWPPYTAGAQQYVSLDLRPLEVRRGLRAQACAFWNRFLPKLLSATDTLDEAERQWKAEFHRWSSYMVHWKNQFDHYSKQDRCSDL
Protocol: Three series of tacrine-squaramide homodimers were tested for their inhibitory potential against human AChE (hAChE) and human BChE (hBChE) enzymes using modified spectrophotometric method of Ellman et al.. THA, 6-Cl-THA and 7-MEOTA were used as reference compounds. […].
as §1, §2, §3

[3] = for Pe: PAMPA, PBS pH 7.4; for CNS (+/−) predicted BBB permeation: class from Pe
Source text: An important feature for drugs targeting the brain is their ability to cross the BBB. The parallel artificial membrane permeability assay (PAMPA) is a high-throughput screening tool applicable for prediction of passive transport across BBB [57]. […] These include mainly (i) the different composition of the human phospholipid bilayer may cause deviation in predicted permeability, (ii) omitting the absorption of compounds that are actively transported by influx transporters and pumped-out by various efflux mechanisms with the glycoprotein P at the forefront or (iii) transport through the paracellular route which is mostly exploited by small […] molecules. Even considering these drawbacks, PAMPA-BBB is conceived as very simple but powerful tool for BBB prediction.
PAMPA (the parallel artificial membrane permeability assay) is a high-throughput screening tool applicable for prediction of the passive transport of potential drugs across the blood-brain barrier (BBB). In this study, it has been used as a non-cell-based in vitro assay carried out in a coated 96-well membrane filter. The filter membrane of the donor plate was coated with PBL (Polar Brain Lipid, Avanti, USA) in dodecane (4 µl of 20 mg/mL PBL in dodecane) and the acceptor well was filled with 300 µl of phosphate buffer saline, (PBS pH 7.4; VA). The tested compounds were dissolved first in DMSO and then diluted with PBS pH 7.4 to reach the final concentrations 50–500 µM in the donor well. […] In principle, test compound diffuse from the donor well through the polar brain lipid membrane (area = 0.28 cm^2) to the acceptor well. The concentration of the tested compound in both donor and the acceptor wells were assessed after 3, 4, 5 and 6 h of incubation in quadruplicate using the UV plate reader Synergy HT (Biotek, USA) at the maximum absorption wavelength of each compound (n = 3). Besides that, the solution of theoretical compound concentration, simulating the equilibrium state, established if the membrane was ideally permeable was prepared and assessed as well.

| Structure (SMILES) | IC50 at 24 h (in vitro) [µM] | IC50 [1] [µM] | IC50 [2] [µM] | SI (selectivity index for hAChE) [2] | Pe [3] [×10⁻⁶ cm/s] | CNS (+/−) predicted BBB permeation [3] |
| --- | --- | --- | --- | --- | --- | --- |
| Nc1c2c(nc3cc(Cl)ccc13)CCCC2 [Compound 6-Cl-THA, 6-chlorotacrine, reference compound] | 43 | – | – | – | – | – |
| O=c1c(NCCCCCNc2c3c(nc4ccccc24)CCCC3)c(NCCCCCNc2c3c(nc4ccccc24)CCCC3)c1=O [Compound 3d, Bis({5-[(1,2,3,4-tetrahydroacridin-9-yl)amino]pentyl}amino)cyclobut-3-ene-1,2-dione] | 69 | 0.069 | 0.0081 | 8.5 | – | – |
| O=c1c(NCCCCNc2c3c(nc4cc(Cl)ccc24)CCCC3)c(NCCCCNc2c3c(nc4cc(Cl)ccc24)CCCC3)c1=O [Compound 4c, Bis({4-[(6-chloro-1,2,3,4-tetrahydroacridin-9-yl)amino]butyl}amino)cyclobut-3-ene-1,2-dione] | > 64 | 0.17 | 0.0046 | 37 | – | – |
| O=c1c(NCCCCCCCCNc2c3c(nc4ccccc24)CCCC3)c(NCCCCCCCCNc2c3c(nc4ccccc24)CCCC3)c1=O [Compound 3g, Bis({8-[(1,2,3,4-tetrahydroacridin-9-yl)amino]octyl}amino)cyclobut-3-ene-1,2-dione] | 6.6 | 0.05 | 0.072 | 0.7 | – | – |
| O=c1c(NCCCNc2c3c(nc4ccccc24)CCCC3)c(NCCCNc2c3c(nc4ccccc24)CCCC3)c1=O [Compound 3b, Bis({3-[(1,2,3,4-tetrahydroacridin-9-yl)amino]propyl}amino)cyclobut-3-ene-1,2-dione] | > 32 | 0.055 | 0.0084 | 6.5 | – | – |
| CCN(C)C(=O)Oc1cccc([C@H](C)N(C)C)c1 [Rivastigmine, rivastigmine, reference compound] | 3400 | – | – | – | – | – |
| NS(=O)(=O)c1cc2c(cc1Cl)N=CNS2(=O)=O [chlorothiazide, reference compound] | – | – | – | – | 0.3 | CNS − (CNS −: low BBB permeation predicted with Pe (10^−6 cm·s^−1) < 2.0) |
| COc1ccc2nc3c(c(NCCCCNc4c(NCCCCNc5c6c(nc7ccc(OC)cc57)CCCC6)c(=O)c4=O)c2c1)CCCC3 [Compound 5c, Bis({4-[(7-methoxy-1,2,3,4-tetrahydroacridin-9-yl)amino]butyl}amino)cyclobut-3-ene-1,2-dione] | 190 | 4.7 | 4.5 | – | – | – |
| COc1ccc2nc3c(c(NCCCCCCNc4c(NCCCCCCNc5c6c(nc7ccc(OC)cc57)CCCC6)c(=O)c4=O)c2c1)CCCC3 [Compound 5e, Bis({6-[(7-methoxy-1,2,3,4-tetrahydroacridin-9-yl)amino]hexyl}amino)cyclobut-3-ene-1,2-dione] | 26 | 1.1 | 0.15 | 7.3 | – | – |
| CNC(=C[N+](=O)[O-])NCCSCc1ccc(CN(C)C)o1 [ranitidine, reference compound] | – | – | – | – | 0 | CNS − (CNS −: low BBB permeation predicted with Pe (10^−6 cm·s^−1) < 2.0) |
| COc1ccc2c3c1O[C@H]1C[C@@H](O)C=C[C@@]31CCN(C)C2 [Galantamine, galantamine, reference compound] | 4200 | – | – | – | – | – |
| Nc1c2c(nc3ccccc13)CCCC2 [THA, 9-amino-1,2,3,4-tetrahydroacridine, reference compound] | – | – | – | – | 6 | CNS + (CNS +: high BBB permeation predicted with Pe (10^−6 cm·s^−1) > 4.0) |
| COc1ccc2nc3c(c(NCCCNc4c(NCCCNc5c6c(nc7ccc(OC)cc57)CCCC6)c(=O)c4=O)c2c1)CCCC3 [Compound 5b, Bis({3-[(7-methoxy-1,2,3,4-tetrahydroacridin-9-yl)amino]propyl}amino)cyclobut-3-ene-1,2-dione] | > 64 | 8.9 | 1.1 | 8.1 | – | – |
| O=c1c(NCCCCNc2c3c(nc4ccccc24)CCCC3)c(NCCCCNc2c3c(nc4ccccc24)CCCC3)c1=O [Compound 3c, Bis({4-[(1,2,3,4-tetrahydroacridin-9-yl)amino]butyl}amino)cyclobut-3-ene-1,2-dione] | 150 | 0.075 | 0.0055 | 14 | – | – |
| CC(C)Cc1ccc(C(C)C(=O)O)cc1 (centres unmarked) [ibuprofen, reference compound] | – | – | – | – | 12 | – |
| O=c1c(NCCCCCCCNc2c3c(nc4cc(Cl)ccc24)CCCC3)c(NCCCCCCCNc2c3c(nc4cc(Cl)ccc24)CCCC3)c1=O [Compound 4f, Bis({7-[(6-chloro-1,2,3,4-tetrahydroacridin-9-yl)amino]heptyl}amino)cyclobut-3-ene-1,2-dione] | > 64 | 0.45 | 0.016 | 28 | – | – |
| COc1ccc2nc3c(c(NCCCCCCCNc4c(NCCCCCCCNc5c6c(nc7ccc(OC)cc57)CCCC6)c(=O)c4=O)c2c1)CCCC3 [Compound 5f, Bis({7-[(7-methoxy-1,2,3,4-tetrahydroacridin-9-yl)amino]heptyl}amino)cyclobut-3-ene-1,2-dione] | 9 | 1.3 | 0.17 | 7.6 | – | – |
| O=c1c(NCCCCCCCCNc2c3c(nc4cc(Cl)ccc24)CCCC3)c(NCCCCCCCCNc2c3c(nc4cc(Cl)ccc24)CCCC3)c1=O [Compound 4g, Bis({8-[(6-chloro-1,2,3,4-tetrahydroacridin-9-yl)amino]octyl}amino)cyclobut-3-ene-1,2-dione] | > 64 | > 100 | 0.01 | ˃10,000 | – | – |
| O=c1c(NCCCCCNc2c3c(nc4cc(Cl)ccc24)CCCC3)c(NCCCCCNc2c3c(nc4cc(Cl)ccc24)CCCC3)c1=O [Compound 4d, Bis({5-[(6-chloro-1,2,3,4-tetrahydroacridin-9-yl)amino]pentyl}amino)cyclobut-3-ene-1,2-dione] | > 64 | 0.31 | 0.0082 | 38 | – | – |
| O=c1c(NCCCCCCCNc2c3c(nc4ccccc24)CCCC3)c(NCCCCCCCNc2c3c(nc4ccccc24)CCCC3)c1=O [Compound 3f, Bis({7-[(1,2,3,4-tetrahydroacridin-9-yl)amino]heptyl}amino)cyclobut-3-ene-1,2-dione] | 23 | 0.032 | 0.032 | 1 | – | – |
| COc1ccc2nc3c(c(N)c2c1)CCCC3 [Compound 7-MEOTA, 7-methoxytacrine, reference compound] | 44 | – | – | – | – | – |
